Data set [1] deals with spinal astrocytes (GFAP) in the dorsal horn of the spinal cord. Description: Spinal astrocyte activation (GFAP immunofluorescence) after intrauterine LPS. The class given is in vivo, mouse (Balb/C). Conditions: 3 estrous cycles. How it is done:
(§1) Group 1 included twelve mice with 20 μl endotoxin-free saline introduced to the uterus on the first day of estrus and the subsequent day over 3 consecutive estrous cycles. Group 2 included twelve mice with LPS (100 μg/kg) instilled in the uterus on the first day of estrus and saline injected on the subsequent day over 3 consecutive estrous cycles. Group 3 included twelve mice with LPS (100 μg/kg) mixed with amitriptyline (20 μl of a 100 μM solution, equivalent to 28 μg/kg) instilled in the uterus on the first day of estrus, and amitriptyline alone instilled on the subsequent day over 3 consecutive estrous cycles. Group 4 included 14 mice with LPS (100 μg/kg) mixed with TAK-242 (20 μl of a 100 μM solution, equivalent to 36 μg/kg) instilled on the first day of estrus and TAK-242 alone instilled on the subsequent day over 3 consecutive estrous cycles.
(§2) The investigation involved the instillation of 20 ul of an endotoxin-free 0.9% saline solution into the uterus of all animals on the first day of estrus and the subsequent day during 3 consecutive estrous cycles. Additional agents added to the saline were included according to the groups outlined below. Where LPS is administered, this was done on only 1 day per estrous cycle.
(§3) Where amitriptyline or TAK-242 was administered, this is on both the first day of estrus and the subsequent day.
(§4) The spinal cord was assessed using immunohistochemistry techniques across levels T10, T11, T12, T13, L1, L2, L3, L4, L5, L6, S1 and S2 for Groups 1 and 2, where T represents the thoracic segment of the spinal cord, L represents the lumbar segment of the spinal cord and S represents the sacral segment of the spinal cord.
(§5) The spinal cord was assessed using immunohistochemistry techniques across levels T12, T13, L1, L2, L3, L4, L5, L6, S and S2 for Groups 3 and 4, where T represents the thoracic segment of the spinal cord, L represents the lumbar segment of the spinal cord and S represents the sacral segment of the spinal cord. […]

Data set [2] deals with spinal microglia (Iba1) in the dorsal horn of the spinal cord. Description: Spinal microglial activation (Iba1 immunofluorescence) after intrauterine LPS. The class given is in vivo, mouse (Balb/C). Conditions: 3 estrous cycles. The method, then:
as §1, §2, §3, §4, §5

The test system of data set [3] is spinal glial cells in the dorsal horn of the spinal cord. Description: Spinal glial activation (astrocytes and microglia) after intrauterine LPS, overall statements. The class given is in vivo, mouse (Balb/C).
Description: In the model, we investigated whether intrauterine LPS administration would cause an activation of the innate immune system in the uterus, replicating the inflammation often seen in dysmenorrhea, with possible association with pain. As inflammation is intrinsically linked with pain, we investigated whether activation of the innate immune system in the uterus would induce activation of spinal glial cells (central nervous system immune cells) in the dorsal horn of the spinal cord. Spinal glial cells include astrocytes and microglia. Activation of spinal glial cells was assessed using immunoflourescent staining with GFAP (astrocytes) or Iba1 (microglia). We then investigated if spinal glial activation is attenuated by the innate immune system blocking drugs amitriptyline and TAK-242.
as §1
Determination of spinal glial response was then assessed using immunofluorescence to confirm the validity of the experimental model.
Determination of the ability of TLR4 antagonists to block the activation of spinal astrocytes and microglia induced by intra-uterine instillation of LPS was assessed.
An assessment of glial activation was made using immunochemistry techniques including Ionized calcium binding adaptor molecule 1 (Iba1) expression and glial fibrillary-associated protein (GFAP) variability in the dorsal horn. Iba1 expression is a marker for microglial activation, and GFAP is a marker for astrocyte activation. The spinal cord levels chosen are consistent with the level of spinal afferent neurons associated with the pelvis, including the uterus in the mouse.

The target of the next data set is T1, hTLR9 (Homo sapiens, UniProt Q9NR96).
T1 construct: expressed in transfected cells; host or cells: HEK293
T1 sequence (Q9NR96 26-1032): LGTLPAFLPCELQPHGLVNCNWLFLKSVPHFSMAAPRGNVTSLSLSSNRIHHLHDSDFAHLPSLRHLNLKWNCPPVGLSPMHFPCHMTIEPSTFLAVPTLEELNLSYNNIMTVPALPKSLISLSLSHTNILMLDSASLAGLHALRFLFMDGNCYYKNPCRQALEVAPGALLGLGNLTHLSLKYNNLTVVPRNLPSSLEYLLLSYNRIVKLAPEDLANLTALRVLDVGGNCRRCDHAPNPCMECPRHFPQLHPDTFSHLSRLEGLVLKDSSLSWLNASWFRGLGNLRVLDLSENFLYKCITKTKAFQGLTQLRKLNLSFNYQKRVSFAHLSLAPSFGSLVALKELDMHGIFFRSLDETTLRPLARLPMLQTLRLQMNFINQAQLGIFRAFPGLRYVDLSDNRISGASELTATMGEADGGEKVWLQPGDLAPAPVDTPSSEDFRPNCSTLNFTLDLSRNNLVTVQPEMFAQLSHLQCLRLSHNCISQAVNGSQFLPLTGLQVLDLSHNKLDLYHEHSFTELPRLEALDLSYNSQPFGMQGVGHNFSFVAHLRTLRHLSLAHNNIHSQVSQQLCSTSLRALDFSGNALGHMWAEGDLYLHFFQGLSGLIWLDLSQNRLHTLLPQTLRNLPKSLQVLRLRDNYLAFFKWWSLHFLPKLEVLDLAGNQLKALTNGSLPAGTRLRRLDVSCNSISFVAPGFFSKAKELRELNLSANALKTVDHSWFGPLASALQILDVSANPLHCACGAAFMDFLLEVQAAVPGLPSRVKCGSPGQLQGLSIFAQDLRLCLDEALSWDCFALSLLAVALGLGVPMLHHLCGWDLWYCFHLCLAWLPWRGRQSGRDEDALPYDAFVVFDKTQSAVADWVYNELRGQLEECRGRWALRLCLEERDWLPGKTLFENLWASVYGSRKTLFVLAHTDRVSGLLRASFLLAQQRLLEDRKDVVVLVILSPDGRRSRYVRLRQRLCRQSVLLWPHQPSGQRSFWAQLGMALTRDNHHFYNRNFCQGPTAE
Description: Human TLR/NLR agonist screening, NF-κB SEAP reporter in HEK293 cells. The class given is cell-based. Conditions: agonist mode, Control+ = CpG ODN 2006 1 μg/mL. How it is done: (§6) Toll-Like Receptor (TLR), NOD-Like Receptor (NLR) and C-Type Lectin Receptor (CLR) stimulation were tested by assessing NF-κB activation in HEK293 cells expressing a given TLR, NLR or CLR. The activity of the test articles was tested at one concentration and compared to control ligands. These steps were performed in triplicate.
hTLR9: CpG ODN 2006 at 1 μg/mL Antagonist: 500 ng/mL.
(§7) In a 96-well plate (200 μL total volume) containing the appropriate cells (50,000-75,000 cells/well), 20 μL of the test article or the positive control ligand was added to the wells. For the antagonist assay, the test article was incubated with the cells, at 37° C. with 5% CO2, for 30 minutes prior to the addition of the positive control ligand to the wells. The media added to the wells was designed for the detection of NF-κB induced SEAP expression. After a 16-24 hr incubation the optical density (OD) was read at 650 nm on a Molecular Devices SpectraMax 340PC absorbance detector.
(§8) The fold induction (ratio of average induced value to average non-induced value) results were as follows: […]

The target of the next data set is T2, hNOD1 (Homo sapiens, UniProt Q9Y239).
T2 construct: expressed in transfected cells; host or cells: HEK293
T2 sequence (Q9Y239 1-953): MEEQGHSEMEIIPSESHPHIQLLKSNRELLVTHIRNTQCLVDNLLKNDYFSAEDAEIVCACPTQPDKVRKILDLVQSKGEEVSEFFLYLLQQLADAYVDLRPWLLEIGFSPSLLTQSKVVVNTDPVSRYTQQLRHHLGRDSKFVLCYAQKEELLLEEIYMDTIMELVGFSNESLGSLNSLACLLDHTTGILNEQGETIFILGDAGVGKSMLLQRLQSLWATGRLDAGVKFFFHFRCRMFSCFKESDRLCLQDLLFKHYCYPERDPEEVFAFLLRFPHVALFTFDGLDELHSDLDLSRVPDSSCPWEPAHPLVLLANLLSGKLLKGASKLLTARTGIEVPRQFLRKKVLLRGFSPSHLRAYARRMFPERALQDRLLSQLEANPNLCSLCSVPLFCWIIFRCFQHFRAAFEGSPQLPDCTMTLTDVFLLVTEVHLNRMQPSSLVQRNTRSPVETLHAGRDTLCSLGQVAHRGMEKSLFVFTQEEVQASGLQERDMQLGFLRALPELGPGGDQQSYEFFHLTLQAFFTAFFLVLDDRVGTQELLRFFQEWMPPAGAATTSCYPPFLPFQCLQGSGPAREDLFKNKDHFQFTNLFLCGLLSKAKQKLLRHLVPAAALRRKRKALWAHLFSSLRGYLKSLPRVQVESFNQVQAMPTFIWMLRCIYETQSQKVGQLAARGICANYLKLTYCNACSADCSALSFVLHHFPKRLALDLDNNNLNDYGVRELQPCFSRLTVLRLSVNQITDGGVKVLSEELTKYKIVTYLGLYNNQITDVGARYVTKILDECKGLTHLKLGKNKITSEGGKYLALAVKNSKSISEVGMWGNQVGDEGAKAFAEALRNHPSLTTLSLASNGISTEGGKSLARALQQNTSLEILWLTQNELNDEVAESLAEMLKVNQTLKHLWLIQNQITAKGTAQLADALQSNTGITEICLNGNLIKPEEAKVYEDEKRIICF
The description is as above. It is filed as cell-based. The conditions noted are these: agonist mode, Control+ = C12-iE-DAP 1 μg/mL. How it is done:
as §6
hNOD1: C12-iE-DAP at 1 μg/mL Antagonist: 100 ng/mL.
as §7, §8

The test system of data set [4] is mice with intrauterine LPS. Description: Facial Grimace Scale 24 hours after final LPS stimulation. It is filed as in vivo, mouse (Balb/C). Conditions: intrauterine LPS vs saline, 24 hours after final LPS stimulation. How it is done: as §1
24 hours following the final LPS stimulation mice were subjected to assessment for the presence or absence of pain. This was assessed using the following tests:
Facial Grimace Scale: Photos of mice in their home cage will be taken, to score their facial Grimace and this was quantified and compared between groups. For further information see: http://www.nature.com/nmeth/journal/v7/n6/full/nmeth.1455.html.

The next data set concerns the target T3, hTLR5 (Homo sapiens, UniProt O60602).
T3 construct: expressed in transfected cells; host or cells: HEK293
Description: Human TLR/NLR agonist screening, NF-κB SEAP reporter in HEK293 cells. The conditions noted are these: agonist mode, Control+ = S. typhimurium flagellin 100 ng/mL. It is filed as cell-based. How it is done:
as §6
hTLR5: S. typhimurium flagellin at 100 ng/mL Antagonist: 50 ng/mL.
as §7, §8

Setting [5] is: intrauterine, mixed with LPS 100 μg/kg on first day of estrus and alone the subsequent day, amitriptyline 28 μg/kg, TAK-242 36 μg/kg, vs LPS.

“Also recorded” adds a separate entry of the source.

T3 sequence (O60602 21-858): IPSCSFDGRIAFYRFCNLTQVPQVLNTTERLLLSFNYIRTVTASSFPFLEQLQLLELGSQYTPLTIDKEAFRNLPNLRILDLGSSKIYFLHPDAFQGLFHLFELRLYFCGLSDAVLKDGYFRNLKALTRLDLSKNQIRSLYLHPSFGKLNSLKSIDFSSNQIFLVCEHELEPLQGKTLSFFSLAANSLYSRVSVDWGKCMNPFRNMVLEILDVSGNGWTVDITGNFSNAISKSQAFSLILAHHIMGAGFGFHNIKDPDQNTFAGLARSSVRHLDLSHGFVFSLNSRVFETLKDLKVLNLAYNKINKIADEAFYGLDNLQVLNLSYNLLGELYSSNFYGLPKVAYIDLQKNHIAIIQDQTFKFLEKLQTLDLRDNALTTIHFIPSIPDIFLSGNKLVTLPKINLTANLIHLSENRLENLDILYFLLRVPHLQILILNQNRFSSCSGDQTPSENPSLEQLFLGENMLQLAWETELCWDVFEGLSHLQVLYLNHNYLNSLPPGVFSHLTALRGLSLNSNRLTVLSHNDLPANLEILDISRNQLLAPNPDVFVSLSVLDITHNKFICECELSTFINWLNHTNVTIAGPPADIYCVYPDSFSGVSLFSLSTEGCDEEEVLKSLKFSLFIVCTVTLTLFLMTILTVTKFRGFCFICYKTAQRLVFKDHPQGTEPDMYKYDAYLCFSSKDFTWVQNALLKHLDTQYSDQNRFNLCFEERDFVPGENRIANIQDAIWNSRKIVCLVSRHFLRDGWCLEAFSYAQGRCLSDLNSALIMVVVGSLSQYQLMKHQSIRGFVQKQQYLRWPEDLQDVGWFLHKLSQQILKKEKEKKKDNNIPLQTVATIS

For the molecule `CCOC(=O)C1=CCCC[C@H]1S(=O)(=O)Nc1ccc(F)cc1Cl` [TAK-242], the “astrocytic reactivity (GFAP staining), impact of intrauterine LPS at multiple levels of the spinal cord” value in data set [1] (setting [5]) is given as “reduced astrocytic reactivity to below basal levels”. In data set [2] (setting [5]), the “microglial reactivity (Iba1 staining), impact of intrauterine LPS at multiple levels of the spinal cord” value is recorded as “reduced microglia reactivity to basal levels”. Further, the “spinal glial activation induced by intrauterine LPS” value in data set [3] (intrauterine co-administration with LPS) is “prevented; also recorded: block spinal glial activation”. For the same molecule, the “dose effective at reducing spinal glial activation” value in data set [3] (mouse model, intrauterine administration) is 0.036 mg/kg.
For the molecule CpG ODN 2006, at hTLR9, the “Fold induction (ratio of average induced value to average non-induced value)” value worked out at 18.
As to `CCCCCCCCCCCC(=O)N[C@H](CCC(=O)NC(CCCC(N)C(=O)O)C(=O)O)C(=O)O` (some centres unmarked) [C12-iE-DAP], the “Fold induction (ratio of average induced value to average non-induced value)” value on hNOD1 worked out at 20.
Consider lipopolysaccharide [LPS], for which, in data set [1] (intrauterine LPS 100 μg/kg once per cycle, vs saline controls), the GFAP astrocyte staining entry was “increase in GFAP astrocyte staining through widespread levels of the spinal cord; also recorded: substantial increase in GFAP astrocyte staining”. Further, in data set [2] (intrauterine LPS 100 μg/kg once per cycle, vs saline), the Iba1 microglial staining result is recorded as “localised increase in Iba1 microglial staining”. In addition, the “activation of spinal glial cells (astrocytes and microglia)” value in data set [3] (intra-uterine LPS) is “induced activation of spinal astrocytes and microglia; also recorded: activate spinal glial cells”. In addition, the “presentation of Grimace behaviours” value in data set [4] is recorded as “significant increase in the presentation of Grimace behaviours”.

B1: S. typhimurium flagellin: hTLR5 control ligand (protein, UniProt P06179 2-495, looked up)
Flagellin: AQVINTNSLSLLTQNNLNKSQSALGTAIERLSSGLRINSAKDDAAGQAIANRFTANIKGLTQASRNANDGISIAQTTEGALNEINNNLQRVRELAVQSANSTNSQSDLDSIQAEITQRLNEIDRVSGQTQFNGVKVLAQDNTLTIQVGANDGETIDIDLKQINSQTLGLDTLNVQQKYKVSDTAATVTGYADTTIALDNSTFKASATGLGGTDQKIDGDLKFDDTTGKYYAKVTVTGGTGKDGYYEVSVDKTNGEVTLAGGATSPLTGGLPATATEDVKNVQVANADLTEAKAALTAAGVTGTASVVKMSYTDNNGKTIDGGLAVKVGDDYYSATQNKDGSISINTTKYTADDGTSKTALNKLGGADGKTEVVSIGGKTYAASKAEGHNFKAQPDLAEAAATTTENPLQKIDAALAQVDTLRSDLGAVQNRFNSAITNLGNTVNNLTSARSRIEDSDYATEVSNMSRAQILQQAGTSVLAQANQVPQNVLSLLR
Consider B1, for which the “Fold induction (ratio of average induced value to average non-induced value)” value in the data set with hTLR5 is on record as 18.

For the origin of these results see patent publication US11400059B2, “Treatment of pain and/or pain related symptoms associated with dysmenorrhea” (ALYRA BIOTECH PTY LTD, priority 2017, dated 2022).
